In article PMC9295568, “Dual Inhibition of Vacuolar-ATPase and TMPRSS2 Is Required for Complete Blockade of SARS-CoV-2 Entry into Cells” (Antimicrobial Agents and Chemotherapy, 2022):
Like-named read-outs stand apart in the source and are kept apart here.

Columns and labels:
Format in all cases: cell-based
[1] = system: SARS-CoV-2 PsV (wild-type S protein); assay: microbe, parasite or virus in culture
[2] = system: endosomal acidification in HeLa-ACE2 cells; assay: Inhibition of endosomal acidification (LysoTracker Red DND-99), HeLa-ACE2 cells
Method: Inhibition of endosomal acidification was measured using LysoTracker Red DND-99 (ThermoFisher). HeLa-ACE2 and Vero-TMPRSS2 cells were prepared following the above-mentioned protocol, where 10,000 cells/well of pre-seeded cells were cocultured with the same serial dilutions of the sample compounds at 37°C for 2 h. Following this, 0.1 μM final concentration of LysoTracker Red DND-99 (ThermoFisher) was added to each well and incubated for 30 min at 37°C. The cell medium was then replaced with 100 μL of FluoroBrite DMEM (ThermoFisher). Fluorescence was measured using a Synergy Neo2 Multi-Mode Assay Microplate Reader (Biotek Instruments) while employing a Texas Red filter. Data were plotted and IC50 values were calculated using Prism 9 (GraphPad).

[3] = Cell viability (CellTiter-Glo), HeLa-ACE2 cells; conditions: human, read-out: half-cytotoxic concentration (CC50)
Method: (§1) In order to confirm that the reduced luminescence was not related to cell toxicity, HeLa-ACE2 and Vero-TMPRSS2 cell viability upon incubation with serial dilutions of the sample compounds were tested in parallel to the neutralization assay. […] Cell viability was monitored by adding 50 μL of CellTiter-Glo reagent (Promega) to 200 μL of media containing cells. After a 10-minute incubation, 100 μL volume was transferred to a 96-well white plate (Sigma-Aldrich) to measure luminescence using a Synergy Neo2 Multi-Mode Assay Microplate Reader (Biotek Instruments). As an additional measure of cell toxicity Vero cell, lacking TMPRSS2, viability was measured using PrestoBlue (ThermoFisher). 10,000 cells/well of pre-seeded Vero cells were cocultured with the same serial dilutions of the sample compounds at 37°C for 48 h. At 48 h, 10 μL of PrestoBlue (ThermoFisher) was added to 100 μL of media containing cells. After a 2 h incubation, fluorescence was measured using a Spectromax m5e (Molecular Devices) at an excitation of 555 nm and emission of 585 nm. Data were plotted and half-cytotoxic concentration (CC50) values were calculated using Prims 9 (GraphPad).

[4] = system: endosomal acidification in Vero cells; assay: cells; conditions: Chlorocebus sabaeus; Vero cells, 40 μM, singlet (n=1); read-out: Percent Inhibition (%) of endosomal acidification
Method: Inhibition of endosomal acidification was measured using LysoTracker Red DND-99 (ThermoFisher). […] Data were plotted using Prism 9 (GraphPad).

[5] = system: SARS-CoV-2 PsV (wild-type S protein); assay: microbe, parasite or virus in culture; conditions: for IC50: Severe acute respiratory syndrome coronavirus 2, Vero-TMPRSS2 (+TMPRSS2), WT PsV, read-out: IC50, inhibition of PsV entry
[6] = system: SARS-CoV-2 PsV B.1.1.7 (Alpha); assay: microbe, parasite or virus in culture; conditions: Severe acute respiratory syndrome coronavirus 2, HeLa-ACE2, read-out: IC50, inhibition of PsV entry
[7] = system: SARS-CoV-2 PsV B.1.1.7 (Alpha); assay: microbe, parasite or virus in culture; conditions: Severe acute respiratory syndrome coronavirus 2, Vero/TMPRSS2, read-out: IC50, inhibition of PsV entry
[8] = system: SARS-CoV-2 PsV B.1.351 (Beta); assay: microbe, parasite or virus in culture; conditions: Severe acute respiratory syndrome coronavirus 2, HeLa-ACE2, read-out: IC50, inhibition of PsV entry
[9] = system: SARS-CoV-2 PsV B.1.351 (Beta); assay: microbe, parasite or virus in culture; conditions: Severe acute respiratory syndrome coronavirus 2, Vero/TMPRSS2, read-out: IC50, inhibition of PsV entry
[10] = system: SARS-CoV-2 PsV B.1.1.529 (Omicron); assay: microbe, parasite or virus in culture; conditions: Severe acute respiratory syndrome coronavirus 2, HeLa-ACE2, read-out: IC50, inhibition of PsV entry
[11] = system: SARS-CoV-2 PsV B.1.1.529 (Omicron); assay: microbe, parasite or virus in culture; conditions: Severe acute respiratory syndrome coronavirus 2, Vero/TMPRSS2, read-out: IC50, inhibition of PsV entry
[12] = system: authentic SARS-CoV-2 (SARS-CoV-2/Canada/ON/VIDO-01/2020/Vero'76/p2); assay: microbe, parasite or virus in culture; conditions: for IC50: Severe acute respiratory syndrome coronavirus 2, Vero 76, read-out: IC50, authentic SARS-CoV-2
[13] = system: authentic SARS-CoV-2 (SARS-CoV-2/Canada/ON/VIDO-01/2020/Vero'76/p2); assay: microbe, parasite or virus in culture; conditions: for IC50: Severe acute respiratory syndrome coronavirus 2, read-out: IC50, authentic SARS-CoV-2
SARS-CoV-2 PsV = system: SARS-CoV-2 PsV
HeLa-ACE2 cells = assay: Cell viability (CellTiter-Glo), HeLa-ACE2 cells; conditions: same dose range as PsV assay
Method: as §1

[14] = HeLa-ACE2, concentrations up to 40 μM
[15] = HeLa-ACE2, concentrations higher than 1 μM

**Q.** For `O=C(Nc1cc(Cl)cc(Cl)c1O)c1c(O)c(Cl)cc(Cl)c1Cl` [Oxyclozanide, oxyclozanide], which “effect on infection levels (in words)” value [1, 14] is on record?
**A.** Its value is “did not alter”.

**Q.** What about the “effect on endosomal acidification (in words)” value [2, 14] of the same compound?
**A.** Its value is “did not alter”.

**Q.** What about the CC50 [3] of the same compound?
**A.** The CC50 was 18700 nM.

**Q.** And the inhibition at 40 µM [4]?
**A.** Its inhibition at 40 µM is 55%.

**Q.** Which results are given for `CN(C)C(=O)COC(=O)Cc1ccc(OC(=O)c2ccc(NC(=N)N)cc2)cc1` [Camostat]?
**A.** inhibition of PsV entry (in words) ([1]; HeLa-ACE2 cells lacking TMPRSS2): unable to inhibit; IC50 ([1]; Severe acute respiratory syndrome coronavirus 2, HeLa-ACE2, read-out: IC50, inhibition of PsV entry, HeLa-ACE2 (-TMPRSS2), WT PsV): > 300000 nM; IC50 ([1]; Severe acute respiratory syndrome coronavirus 2, HeLa-ACE2, read-out: IC50, inhibition of PsV entry, HeLa-ACE2 (-TMPRSS2), wild-type S PsV): > 200000 nM; IC50 [5]: 252 nM; IC50 [6]: > 300000 nM; IC50 [7]: 133 nM; IC50 [8]: > 300000 nM; IC50 [9]: 275 nM; IC50 [10]: > 300000 nM; IC50 [11]: > 7500 nM; IC50 [12]: > 100000 nM; IC50 [13]: 38 nM; inhibition of PsV entry by single compound (in words) (SARS-CoV-2 PsV): neither Camostat nor bafilomycin A1 alone fully inhibited PsV entry

**Q.** Which results are given for `O=C(Nc1ccc([N+](=O)[O-])cc1Cl)c1cc(Cl)ccc1O` [niclosamide]?
**A.** PsV infection (in words) [1, 15]: no measurable infection; endosomal acidification inhibition (in words) [2, 15]: efficient endosomal acidification inhibition; CC50 [3]: 400 nM; inhibition at 40 µM [4]: 75%

**Q.** For `CO/C1=C\C(C)=C\[C@@H](C)[C@@H](O)[C@@H](C)C/C(C)=C/C=C/[C@H](OC)[C@@H]([C@@H](C)[C@@H](O)[C@H](C)[C@@]2(O)C[C@@H](O)[C@H](C)[C@@H](C(C)C)O2)OC1=O` [bafilomycin A1], which IC50 ([1]; Severe acute respiratory syndrome coronavirus 2, HeLa-ACE2, HeLa-ACE2 (-TMPRSS2), WT PsV, read-out: IC50, inhibition of PsV entry) is on record?
**A.** The IC50 was 0.4 nM.

**Q.** What about the IC50 [5] of the same compound?
**A.** Its IC50 is 9.6 nM.

**Q.** What about the “potency of bafilomycin A1 relative to Camostat in stopping viral entry” value ([5]; Vero-TMPRSS2, ratio of IC50 values) of the same compound?
**A.** The value was 26 fold.

**Q.** And the IC50 [6]?
**A.** The IC50 was 0.8 nM.

**Q.** What about the IC50 [8] of the same compound?
**A.** The IC50 was 0.5 nM.

**Q.** What about the IC50 [9] of the same compound?
**A.** The IC50 was 3.4 nM.

**Q.** And the IC50 [10]?
**A.** Its IC50 is 0.3 nM.

**Q.** And the IC50 [11]?
**A.** The IC50 was 1.9 nM.

**Q.** What about the IC50 ([2]; HeLa-ACE2 cells) of the same compound?
**A.** The IC50 was 0.9 nM.

**Q.** And the “associated cell cytotoxicity (in words)” value (HeLa-ACE2 cells)?
**A.** The value was “without displaying any associated cell cytotoxicity”.

**Q.** And the “effect on SARS-CoV-2 infection titers (in words)” value [12]?
**A.** The value was “significantly reduced”.

**Q.** And the IC50 [12]?
**A.** The IC50 was 9 nM.

**Q.** What about the “effect on SARS-CoV-2 infection titers (in words)” value [13] of the same compound?
**A.** Its value is “significantly reduced”.

**Q.** What about the IC50 [13] of the same compound?
**A.** Its IC50 is 0.4 nM.

**Q.** And the “inhibition of PsV entry by single compound (in words)” value (SARS-CoV-2 PsV)?
**A.** Its value is “neither Camostat nor bafilomycin A1 alone fully inhibited PsV entry”.
